One data set deals with A431-fLuc. Description: Luciferase-based cytotoxicity assay, stably transduced CAR T cells against A431-fLuc, Example 4. In kind it is cell-based, human. The following applies: T cells without CAR expression; 10 nM. How it is done: Luciferase-expressing tumour cells were co-cultured with CAR T cells at an E:T cell ratio of 2:1 with 10,000 target cells/well in white round-bottom 96 well plates for 4 hours at 37° C. in cytotoxicity assay medium, consisting of phenol-free RPMI, 10% FCS, 1% L-Glutamine and 1% penicillin-streptomycin. Finally, remaining living cells were quantified by determination of the residual luciferase activity of the co-culture. After equilibration to room temperature for 10 minutes, luciferin was added to the cell suspension (150 μg/mL final concentration) and luciferase activity was measured 20 minutes later using the ENSPIRE Multimode plate reader. The percentage of specific lysis was determined with the following formula:
% specific lysis=100−((RLU from well with effector and target cell co-culture)/(RLU from well with target cells only)×100)).
Dimerization of transgenes was induced prior to co-cultivation experiments. Primary T cells were diluted to the final cell concentration in the respective cell culture medium. The homodimerization agent AP20187 was diluted in cell culture medium and was added at 10 nM final concentration. Addition of the respective vehicle control DMSO at the same concentration served as control. Cells were incubated at 37° C. for 30 minutes to ensure efficient dimerization of transgenes and subsequently used for in vitro experiments.

In data set [1] the test system is Jurkat T cells expressing tHER2. Description: Luciferase-based cytotoxicity assay, affibody-based CAR T cells against tHER2-expressing Jurkat T cells, Example 8. The format is cell-based, human. The following applies: binder fused to 8ser-BB-FKBP(36V)-3z; with or without 10 nM AP20187; E:T 2:1, 4 hours.
Description: Luciferase-expressing tumour cells were co-cultured with CAR T cells at an E:T cell ratio of 2:1 with 10,000 target cells/well in white round-bottom 96 well plates for 4 hours at 37° C. in cytotoxicity assay medium, consisting of phenol-free RPMI, 10% FCS, 1% L-Glutamine and 1% penicillin-streptomycin. Finally, remaining living cells were quantified by determination of the residual luciferase activity of the co-culture. After equilibration to room temperature for 10 minutes, luciferin was added to the cell suspension (150 μg/mL final concentration) and luciferase activity was measured 20 minutes later using the ENSPIRE Multimode plate reader. The percentage of specific lysis was calculated with the following formula:
Dimerization of transgenes was induced prior to co-cultivation experiments. Primary T cells were diluted to the final cell concentration in the respective cell culture medium. The homodimerization agent AP20187 was diluted in cell culture medium and was added at 10 nM final concentration. Addition of the vehicle control DMSO at the same concentration served as control. Cells were incubated at 37° C. for 30 minutes to ensure efficient dimerization of transgenes and subsequently used for in vitro experiments.

From patent US20210386781A1, “A GROUP OF CHIMERIC ANTIGEN RECEPTORS (CARS)” (ST. ANNA KINDERKREBSFORSCHUNG, priority 2018, published 2021) come the findings set out here.

As to `CC[C@H](C(=O)N1CCCC[C@H]1C(=O)O[C@H](CCc1ccc(OC)c(OC)c1)c1cccc(OCC(=O)NCC(CNC(=O)COc2cccc([C@@H](CCc3ccc(OC)c(OC)c3)OC(=O)[C@@H]3CCCCN3C(=O)[C@@H](CC)c3cc(OC)c(OC)c(OC)c3)c2)CN(C)C)c1)c1cc(OC)c(OC)c(OC)c1` [AP20187, reference compound], the “effect of the dimerization agent itself on lysis of target cells” value with A431-fLuc was “no effects on the lysis of target cells”.

Regarding “zHER2-WT: high-affinity anti-HER2 affibody with point mutations N23A and S33K”, the “capacity to trigger cytotoxicity in presence or absence of AP20187” value in data set [1] was “efficient target cell lysis independent of presence of AP20187”.
